# Reference: article PMC6385813, “Macrocyclisation of small peptides enabled by oxetane incorporation” (Chemical Science, 2019)
# Read-outs that look alike come from different tables or passages of the source. Positions of bridges follow the written chain, without caps; N, C: chain ends. Residues, ends and D or L forms follow the SMILES beside them.
# What was measured:
# [1] = stability of oxetane to side-chain deprotection with TFA; type: physicochemical; conditions: 70% TFA/20% CH2Cl2/10% TIS, 2.5 h (global side-chain deprotection including Arg Pbf)
# Source text: Macrocyclisations not involving head-to-tail ring closure have also been examined. Specifically, the formation of disulphide containing macrocycles through oxidative cyclisation of cysteine side chains has been explored (Scheme 5). Treatment of 2, whose synthesis was described in Scheme 3, with iodine provided the 17-membered macrocycle by way of trityl deprotection and disulphide bond formation. Further reaction with TFA in the presence of the cation scavenger triisopropylsilane (TIS) facilitated removal of all the side chain protecting groups providing 22 after reverse-phase HPLC purification. […] Smaller 11- and 14-membered macrocycles 23 and 24 were also conveniently produced in good yields using this methodology.
# [formula] Scheme 5 Oxetane modified cyclic peptides by disulphide bond formation.^a^,^b^aReagents and conditions: (a) I2 (3.0 equiv.), MeOH, 1 h; (b) 70% TFA/20% CH2Cl2/10% TIS, 2.5 h. ^bBond formed in macrocyclisation indicated in red. ^cTFA step omitted; yield in parenthesis for the cyclisation of linear peptide with C?O rather than oxetane in backbone. ^dData taken from [ref. 14].
# Fmoc-Cys(Trt)-Asn(Trt)-GOx-Arg(Pbf)-Cys(Trt)-OtBu (2)
# Diethylamine (1.0 mL) was added to a solution of Fmoc-GOx-Arg(Pbf)-Cys(Trt)-OtBu (127) […]
# and the reaction mixture was stirred at room temperature for 1 h. […]
# [2] = target: T1, porcine Aminopeptidase N (APN) (Sus scrofa, UniProt P15145); experiment: porcine Aminopeptidase N inhibition, spectrophotometric; type: biochemical
# T1 construct: aminopeptidase from porcine kidney (pAPN, Sigma Aldrich); purchased Sigma Aldrich; host or cells: porcine kidney (microsomal preparation)
# T1 sequence (P15145 1-963): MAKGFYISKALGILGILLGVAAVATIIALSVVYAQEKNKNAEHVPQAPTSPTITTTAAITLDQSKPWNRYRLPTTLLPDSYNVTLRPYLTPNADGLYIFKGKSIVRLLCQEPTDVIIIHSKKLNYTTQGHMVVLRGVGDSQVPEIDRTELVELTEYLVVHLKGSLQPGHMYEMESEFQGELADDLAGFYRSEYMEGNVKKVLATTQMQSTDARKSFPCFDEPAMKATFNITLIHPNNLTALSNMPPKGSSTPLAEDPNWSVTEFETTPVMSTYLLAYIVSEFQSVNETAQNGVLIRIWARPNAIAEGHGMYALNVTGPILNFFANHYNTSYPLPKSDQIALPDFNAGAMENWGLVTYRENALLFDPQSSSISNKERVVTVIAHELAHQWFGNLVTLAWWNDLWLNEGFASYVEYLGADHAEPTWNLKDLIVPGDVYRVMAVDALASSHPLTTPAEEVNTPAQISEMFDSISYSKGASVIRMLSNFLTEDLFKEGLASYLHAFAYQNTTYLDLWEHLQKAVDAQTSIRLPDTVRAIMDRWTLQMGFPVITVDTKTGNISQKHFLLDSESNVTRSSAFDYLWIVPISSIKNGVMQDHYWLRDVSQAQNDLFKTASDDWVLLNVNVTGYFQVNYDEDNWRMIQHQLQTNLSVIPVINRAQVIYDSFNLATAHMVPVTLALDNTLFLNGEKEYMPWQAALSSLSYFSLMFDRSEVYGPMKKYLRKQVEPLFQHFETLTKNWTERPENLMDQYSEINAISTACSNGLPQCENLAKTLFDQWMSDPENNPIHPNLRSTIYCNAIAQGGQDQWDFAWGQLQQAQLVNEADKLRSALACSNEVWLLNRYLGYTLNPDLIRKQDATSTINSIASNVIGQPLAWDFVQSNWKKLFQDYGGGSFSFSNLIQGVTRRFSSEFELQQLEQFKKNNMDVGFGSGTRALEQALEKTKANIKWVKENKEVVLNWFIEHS
# Source text: Studies to explore the impact of oxetane modification on the bioactivity of the derived cyclic peptides were undertaken. cCNGRC (26) is known to target Aminopeptidase N (APN), a transmembrane zinc-dependent metalloprotease involved in a variety of processes, including blood pressure regulation, cell migration, viral uptake, cell survival, and angiogenesis.[18],[19] Both oxetane modified derivative 22 and cCNGRC (26) were examined for their inhibitory activity towards porcine APN using a spectrophotometric assay (Table 2).[19]
# 4. In vitro inhibition assay of aminopeptidase N with oxetane modified peptide 22 and parent
# Peptide 26 was synthesised following a procedure by Piras et al.[10] using HCTU as coupling reagent and NMM as base. Oxidation was performed by on-resin cyclization as described for the biotin labelled […]
# For the determination of IC50 values of oxetane modified peptide 22 and parent peptide 26, a protocol published by Piras et al.[10] was followed using L-leucine-p-nitroanilide as substrate and microsomal aminopeptidase from porcine kidney (pAPN, Sigma Aldrich) (18 units/mg protein). IC50 values were calculated by following the formation of p-nitroaniline. Formation of p-nitroaniline was monitored by measurement of the UV absorption at 405 nm on a Hidex Sense plate reader. […]
IC50 ([2]; read-out: IC50) [µM],SMILES,oxetane stability to acid [1],IC50 [2] [µM]
175,"N=C(N)NCCC[C@@H]1NC2(CNC(=O)[C@H](CC(N)=O)NC(=O)[C@@H](N)CSSC[C@@H](C(=O)O)NC1=O)COC2 [Compound 22, Cyclo(H-Cys-Asn-GOx-Arg-Cys-OH)]",survives the strongly acid conditions,
,"N=C(N)NCCC[C@@H]1NC(=O)CNC(=O)[C@H](CC(N)=O)NC(=O)[C@@H](N)CSSC[C@@H](C(=O)O)NC1=O [cCNGRC (26), reference compound] (H-CNGRC-OH; disulfide 1-5)",,212
